What all share (assay type): in vivo
Assay [1] deals with mice (ICR/JCL, male, 4 weeks old). Briefly: Activity-increasing action (spontaneous activity in activity wheel). As to conditions: ratio of effect to that of the same dose of TRH (TRH = 1), cumulative wheel rotations during 3 hours after i.v. administration. The method, then: (3) Activity-increasing action
Using groups of 10 mice (ICR/JCL, male, 4 weeks old), each mouse was placed in an activity wheel and the activity-increasing action of the medication on the mouse was observed. The cumulative number of rotations caused by the spontaneous activity of the mice during a period of 3 hours following the intravenous administration of compound (I) was compared with the number of revolutions for the control group.
(§1) The relative effects of compound (I) by the above 4 procedures were expressed in terms of the ratios of effect of the same dose of compound (I) as that of TRH with the effects of TRH being taken as unity.

The subject of assay [2] is male mice (ICR/JCL) with one caudate nucleus destroyed. Briefly: Dopamine activity-potentiating effect (apomorphine-induced turning, caudate nucleus destroyed, reserpine premedication). As to conditions: ratio of effect to that of the same dose of TRH (TRH = 1), compound given 30 minutes before 0.25 mg/kg apomorphine i.p., reserpine 2 mg/kg i.p. premedication. The method, then: (4) Dopamine activity-potentiating effect
Using groups of 10 male mice (ICR/JCL) with one of its caudate nuclei destroyed by suction the effects of compound (I) upon the number of turns and the percent incidence of head turning as caused by 0.25 mg/kg of apomorphine (I.P.), i.e., a dopamine-receptor stimulant, under the influence of premedication (18-22 hours) with 2 mg/kg of reserpine (i.p.) were examined.
Thus, compound (I) was given 30 minutes before the administration of apomorphine and the result was compared with that for the untreated (control group). This test was performed to ascertain the potentiating effect of the compound upon the central nervous system action of dopamine, the principle of the test being the same as that of the experiment performed by Everett et al. [Fed. Proc. 23, 198, (1964)] for testing the DOPA synergistic effect which involved the administration of Dl-DOPA.
as §1

The test system of assay [3] is TSH (thyroid stimulating hormone) release. The experiment in a line: TSH-releasing activity (method of Schally et al.). As to conditions: ratio of effect to that of the same dose of TRH (TRH = 1); rats. The method, then:
(1) TSH-releasing activity
Using rats, a test was performed in accordance with the method of Schally et al. [J. Biol. Chem. 244, 4077, (1969)].
as §1

In assay [4] the test system is mice (ICR/JCL, male, 4 weeks old). Briefly: Anaesthesia antagonism (pentobarbital sodium, recovery of righting reflex). The settings on record: ratio of effect to that of the same dose of TRH (TRH = 1), 55 mg/kg pentobarbital sodium i.p., compound i.v. after 10 minutes.

The values below come from US4100152A, “Peptides” (Takeda Chemical Industries, Ltd., priority 1976, dated 1978).

In the case of `NC(=O)[C@@H]1CCCN1C(=O)[C@H](Cc1c[nH]cn1)NC(=O)[C@@H]1CCC(=O)N1` [TRH, L-pyroglutamyl-L-histidyl-L-prolinamide], the Spontaneous activity-increasing effect in assay [1] is recorded as 1. Further, the Dopamine-potentiating effect in assay [2] is 1. Also, the TSH-releasing effect in assay [3] is listed as 1. Moreover, the Anaesthesia antagonism in assay [4] was determined as 1.

As to Oct.His.Pip.NH2 [Oct-His-Pip-NH2], the Spontaneous activity-increasing effect in assay [1] came out at 5. In assay [2], the Dopamine-potentiating effect is reported as 4.00. Further, the TSH-releasing effect in assay [3] is listed as 0.5. Moreover, the Anaesthesia antagonism in assay [4] stood at 1.57.
